# According to PubChem BioAssay (NCI):
#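 Step 1: Grow cells in 96-well plates. Step 2: Expose to compound for 48 hours at 5 concentrations. Step 3: Interpolate endpoints linearly; if unreached, use highest concentration. At the GI50, growth is halved. The concentration for full growth arrest is given as TGI.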
# What was measured:
# Test in all cases: NCI anticancer screen, dose series, 48 h
# [1] = tested on: U251 CNS
# [2] = tested on: 786-0 renal
# [3] = tested on: HCC-2998 colon
# [4] = tested on: MDA-MB-435
# [5] = tested on: HCT-116 colon
# [6] = tested on: NCI-H23 lung
# [7] = tested on: M14 melanoma
# [8] = tested on: SK-MEL-5 melanoma
# [9] = tested on: NCI-H226 lung
# [10] = tested on: SK-MEL-28 melanoma
# [11] = tested on: BT-549 breast
# [12] = tested on: OVCAR-4 ovarian
# [13] = tested on: CCRF-CEM leukemia
# [14] = tested on: SNB-75 CNS
# [15] = tested on: MOLT-4 leukemia
# [16] = tested on: DU-145 prostate
# [17] = tested on: SNB-19 CNS
# [18] = tested on: SK-MEL-2 melanoma
# [19] = tested on: UO-31 renal
# [20] = tested on: A549 NSCLC
# [21] = tested on: SK-OV-3 ovarian
# [22] = tested on: OVCAR-3 ovarian
# [23] = tested on: ACHN renal
# [24] = tested on: HOP-92 NSCLC
# [25] = tested on: K-562 leukemia
# [26] = tested on: OVCAR-5 ovarian
# [27] = tested on: SF-268 CNS
# [28] = tested on: PC-3 prostate
# [29] = tested on: TK-10 renal
# [30] = tested on: MALME-3M melanoma
# [31] = tested on: HCT-15 colon
# [32] = tested on: HT29 colon
# [33] = tested on: MDA-N
# [34] = tested on: HL-60(TB) leukemia
# [35] = tested on: RPMI-8226 leukemia
# [36] = tested on: KM12 colon
# [37] = tested on: MDA-MB-231 breast
# [38] = tested on: NCI-H522 lung
# [39] = tested on: HOP-62 NSCLC
# [40] = tested on: CAKI-1 renal
# [41] = tested on: NCI-H460 lung
# [42] = tested on: COLO 205 colon
# [43] = tested on: SF-539 CNS
# [44] = tested on: LOX IMVI melanoma
# [45] = tested on: SN12C renal
# [46] = tested on: MCF7 breast
# [47] = tested on: UACC-62 melanoma
# [48] = tested on: T-47D breast
# [49] = tested on: SW-620 colon
# [50] = tested on: RXF 393 renal
# [51] = tested on: NCI/ADR-RES ovarian
# [52] = tested on: SR leukemia
# [53] = tested on: UACC-257 melanoma
# [54] = tested on: A498 renal
# [55] = tested on: OVCAR-8 ovarian
# [56] = tested on: HS 578T breast
# [57] = tested on: EKVX NSCLC
# [58] = tested on: SF-295 CNS
# [59] = tested on: IGROV1 ovarian
compound,measurement,setting,value
CN(C)CCOc1ccc2[nH]c(C(=O)N3CC(CCl)c4c3cc(N)c3ccccc43)cc2c1 (centres undefined),TGI,[1],1.1 µM
same,TGI,[2],< 0.01 µM
same,TGI,[3],< 0.01 µM
same,TGI,[4],< 0.01 µM
same,TGI,[5],3.63 µM
same,TGI,[6],< 0.01 µM
same,TGI,[7],> 100 µM
same,TGI,[8],< 0.01 µM
same,TGI,[9],< 0.01 µM
same,TGI,[10],< 0.01 µM
same,TGI,[11],1.64 µM
same,TGI,[12],1.18 µM
same,TGI,[13],> 100 µM
same,TGI,[14],< 0.215 µM
same,TGI,[15],< 0.01 µM
same,TGI,[16],0.0525 µM
same,TGI,[17],0.202 µM
same,TGI,[18],< 0.01 µM
same,TGI,[19],< 0.01 µM
same,TGI,[20],13.2 µM
same,TGI,[21],< 0.01 µM
same,TGI,[22],< 0.01 µM
same,TGI,[23],< 0.01 µM
same,TGI,[24],< 0.01 µM
same,TGI,[25],> 4.64 µM
same,TGI,[26],> 100 µM
same,TGI,[27],> 4.64 µM
same,TGI,[28],3.66 µM
same,TGI,[29],> 4.64 µM
same,TGI,[30],< 0.01 µM
same,TGI,[31],> 46.9 µM
same,TGI,[32],1.71 µM
same,TGI,[33],< 0.01 µM
same,TGI,[34],> 100 µM
same,TGI,[35],< 0.01 µM
same,TGI,[36],< 0.01 µM
same,TGI,[37],> 100 µM
CCCCON(OC(=O)c1ccccc1)C(=O)c1ccccc1,GI50,[38],> 100 µM
same,TGI,[38],> 100 µM
same,GI50,[1],> 100 µM
same,TGI,[1],> 100 µM
same,GI50,[39],> 100 µM
same,TGI,[39],> 100 µM
same,GI50,[40],> 100 µM
same,TGI,[40],> 100 µM
same,GI50,[2],> 100 µM
same,TGI,[2],> 100 µM
same,GI50,[3],> 100 µM
same,TGI,[3],> 100 µM
same,GI50,[4],> 100 µM
same,TGI,[4],> 100 µM
same,GI50,[5],> 100 µM
same,TGI,[5],> 100 µM
same,GI50,[6],> 100 µM
same,TGI,[6],> 100 µM
same,GI50,[7],> 100 µM
same,TGI,[7],> 100 µM
same,GI50,[41],> 100 µM
same,TGI,[41],> 100 µM
same,GI50,[8],> 100 µM
same,TGI,[8],> 100 µM
same,GI50,[9],> 100 µM
same,TGI,[9],> 100 µM
same,GI50,[42],> 100 µM
same,TGI,[42],> 100 µM
same,GI50,[10],> 100 µM
same,TGI,[10],> 100 µM
same,GI50,[11],> 100 µM
same,TGI,[11],> 100 µM
same,GI50,[12],> 100 µM
same,TGI,[12],> 100 µM
same,GI50,[13],49.8 µM
same,TGI,[13],> 100 µM
same,GI50,[14],> 100 µM
same,TGI,[14],> 100 µM
same,GI50,[15],53.1 µM
same,TGI,[15],> 100 µM
same,GI50,[16],> 100 µM
same,TGI,[16],> 100 µM
same,GI50,[43],> 100 µM
same,TGI,[43],> 100 µM
same,GI50,[44],> 100 µM
same,TGI,[44],> 100 µM
same,GI50,[17],> 100 µM
same,TGI,[17],> 100 µM
same,GI50,[45],> 100 µM
same,TGI,[45],> 100 µM
same,GI50,[18],> 100 µM
same,TGI,[18],> 100 µM
same,GI50,[46],> 100 µM
same,TGI,[46],> 100 µM
same,GI50,[19],> 100 µM
same,TGI,[19],> 100 µM
same,GI50,[47],> 100 µM
same,TGI,[47],> 100 µM
same,GI50,[48],> 100 µM
same,TGI,[48],> 100 µM
same,GI50,[20],> 100 µM
same,TGI,[20],> 100 µM
same,GI50,[21],> 100 µM
same,TGI,[21],> 100 µM
same,GI50,[22],> 100 µM
same,TGI,[22],> 100 µM
same,GI50,[49],> 100 µM
same,TGI,[49],> 100 µM
same,GI50,[23],> 100 µM
same,TGI,[23],> 100 µM
same,GI50,[24],> 100 µM
same,TGI,[24],> 100 µM
same,GI50,[25],93.4 µM
same,TGI,[25],> 100 µM
same,GI50,[26],> 100 µM
same,TGI,[26],> 100 µM
same,GI50,[27],> 100 µM
same,TGI,[27],> 100 µM
same,GI50,[28],> 100 µM
same,TGI,[28],> 100 µM
same,GI50,[29],> 100 µM
same,TGI,[29],> 100 µM
same,GI50,[50],> 100 µM
same,TGI,[50],> 100 µM
same,GI50,[30],> 100 µM
same,TGI,[30],> 100 µM
same,GI50,[31],> 100 µM
same,TGI,[31],> 100 µM
same,GI50,[51],> 100 µM
same,TGI,[51],> 100 µM
same,GI50,[52],30.3 µM
same,TGI,[52],> 100 µM
same,GI50,[53],> 100 µM
same,TGI,[53],> 100 µM
same,GI50,[32],> 100 µM
same,TGI,[32],> 100 µM
same,GI50,[54],> 100 µM
same,TGI,[54],> 100 µM
same,GI50,[34],88.7 µM
same,TGI,[34],> 100 µM
same,GI50,[35],> 100 µM
same,TGI,[35],> 100 µM
same,GI50,[36],> 100 µM
same,TGI,[36],> 100 µM
same,GI50,[55],> 100 µM
same,TGI,[55],> 100 µM
same,GI50,[37],> 100 µM
same,TGI,[37],> 100 µM
same,GI50,[56],> 100 µM
same,TGI,[56],> 100 µM
same,GI50,[57],> 100 µM
same,TGI,[57],> 100 µM
same,GI50,[58],> 100 µM
same,TGI,[58],> 100 µM
same,GI50,[59],> 100 µM
same,TGI,[59],> 100 µM
O=C(O)c1cc2ccccc2c(N=Nc2ccccc2)c1O,TGI,[38],59.6 µM
same,TGI,[1],45.1 µM
same,TGI,[39],32.5 µM
same,TGI,[40],84.2 µM
same,TGI,[2],> 100 µM
same,TGI,[4],35.5 µM
same,TGI,[5],> 100 µM
same,TGI,[6],56.1 µM
same,TGI,[7],37.9 µM
same,TGI,[8],28.2 µM
same,TGI,[42],47.2 µM
same,TGI,[10],> 100 µM
same,TGI,[11],45.1 µM
same,TGI,[12],> 100 µM
same,TGI,[13],> 100 µM
same,TGI,[14],36 µM
same,TGI,[15],> 100 µM
same,TGI,[16],29.7 µM
same,TGI,[17],79.6 µM
same,TGI,[45],74.1 µM
same,TGI,[19],> 100 µM
same,TGI,[47],35.2 µM
same,TGI,[48],> 100 µM
same,TGI,[20],40.1 µM
same,TGI,[21],> 100 µM
same,TGI,[22],> 100 µM
same,TGI,[49],> 100 µM
same,TGI,[23],69.5 µM
same,TGI,[24],> 100 µM
same,TGI,[25],> 100 µM
same,TGI,[26],> 100 µM
same,TGI,[27],> 100 µM
same,TGI,[28],60.1 µM
same,TGI,[29],> 100 µM
same,TGI,[50],72.5 µM
same,TGI,[30],26.6 µM
same,TGI,[31],> 100 µM
same,TGI,[51],90.4 µM
same,TGI,[53],30.5 µM
same,TGI,[32],54.8 µM
same,TGI,[54],> 100 µM
same,TGI,[33],58.4 µM
same,TGI,[34],33.1 µM
same,TGI,[35],> 100 µM
same,TGI,[36],36.4 µM
same,TGI,[55],> 100 µM
same,TGI,[37],> 100 µM
same,TGI,[56],> 100 µM
same,TGI,[57],96.6 µM
same,TGI,[58],25.9 µM
same,TGI,[59],> 100 µM
